In patent EP1219619B1, “3-AMINO-2-[…] DERIVATIVES AS SUBSTANCE P ANTAGONISTS” (HISAMITSU PHARMACEUTICAL CO. INC., priority 1999, dated 2001):
Structures can show the parent of a compound that is named as a salt. Where two headings read alike, the source gives them in different places.

Tests used:
male ferrets = assay: Antiemetic action against cisplatin-induced vomiting; assay type: in vivo; settings: test compound 3 mg/kg intravenously; cisplatin 10 mg/kg intraperitoneal; observed over six hours; inhibition vs control group, number of episodes
Description: A test was conducted using male ferrets (around 1.2 kg body weight) as follows. Vomiting was induced by intraperitoneal administration of 10 mg/kg of cisplatin to the ferrets in a volume of 3 ml/kg. […] Each test compound was administered intravenously through radial skin at a dose of 3 mg/kg, and immediately after the administration, cisplatin was administered intraperitoneally. Then vomiting symptoms due to cisplatin was observed over six hours. […] The results are shown in Table 2 in terms of rates of inhibition to a control group using the number of times symptoms of vomiting occurred as an index.

[1] = target: T1, NK1 TACHYKININ RECEPTOR, HUMAN(CHO) (Homo sapiens, UniProt P25103); assay: biochemical
T1 sequence (P25103 whole entry): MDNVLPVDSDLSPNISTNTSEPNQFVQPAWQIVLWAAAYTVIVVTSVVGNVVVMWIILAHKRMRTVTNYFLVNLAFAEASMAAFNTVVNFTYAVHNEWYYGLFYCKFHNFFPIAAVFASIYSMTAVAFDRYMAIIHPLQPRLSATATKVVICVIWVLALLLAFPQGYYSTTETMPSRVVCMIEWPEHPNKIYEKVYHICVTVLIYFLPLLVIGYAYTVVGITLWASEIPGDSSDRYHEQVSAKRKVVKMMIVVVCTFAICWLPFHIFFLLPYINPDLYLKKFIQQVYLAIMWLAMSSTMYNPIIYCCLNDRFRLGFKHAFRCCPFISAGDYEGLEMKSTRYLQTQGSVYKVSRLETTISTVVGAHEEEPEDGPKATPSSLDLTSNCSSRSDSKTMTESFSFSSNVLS
Description: (§1) As a sample, NK1 TACHYKININ RECEPTOR, HUMAN(CHO) diluted with incubation buffer (20 mM HEPES/NaOH buffer containing 1 mM MgCl2, 0.1% BSA: pH 7.4) was used (18.75 µg protein/ml). […] And 20 µl of CP-99,994 (final concentration of 1.5 µM) and 20 µl of distilled water were added to determine the amount of nonspecific binding and the amount of total binding, respectively. […] After one hour of incubation, the incubated mixture was filtered with suction and washed with a wash buffer (50 mM Tris/HCl buffer: pH 7.4) four times. The membrane fitted to each well of the MultiScreen was completely dried and punched inside each vial, and 5 ml of cocktail was added to give a sample to be measured.

[2] = target: T1, NK1 TACHYKININ RECEPTOR, HUMAN(CHO)
Description: as §1

Compound | Rate of Inhibition (%) Retching (male ferrets) | Rate of Inhibition (%) Vomiting (male ferrets) | Ki [1] | Ki [2]
Cl.FC(F)(F)c1ccc(-c2cc3c(c(CN[C@H]4CCCN[C@H]4c4ccccc4)c2)OCC3)cc1 [Example 12, (2S,3S)-3-[(5-(4-trifluoromethylphenyl)-2,3-dihydrobenzofuran-7-yl)methyl]amino-2-phenylpiperidine hydrochloride] | 88.4% | 91.1% | 1.01 nM | –
c1ccc([C@@H]2NCCC[C@@H]2NCc2cc(-c3cccs3)cc3c2OCC3)cc1 [Example 6, (2S,3S)-3-[(5-(thiophene-2-yl)-2,3-dihydrobenzofuran-7-yl)methyl]amino-2-phenylpiperidine hydrochloride] | – | – | 0.35 nM | –
c1ccc([C@@H]2NCCC[C@@H]2NCc2cc(-c3ccsc3)cc3c2OCC3)cc1 [Example 7, (2S,3S)-3-[(5-(thiophene-3-yl)-2,3-dihydrobenzofuran-7-yl)methyl]amino-2-phenylpiperidine hydrochloride] | – | – | 0.35 nM | –
Cl.c1ccc([C@@H]2NCCC[C@@H]2NCc2c3c(cc4c2OCC4)OCC3)cc1 [Example 16, (2S,3S)-3-[(2,3,6,7-tetrahydrobenzo[1,2-b:4,5-b']difuran-4-yl)methyl]amino-2-phenylpiperidine hydrochloride] | 58.7% | 62.6% | 1.53 nM | –
Cl.FC(F)(F)c1nc(-c2cc3c(c(CN[C@H]4CCCN[C@H]4c4ccccc4)c2)OCC3)no1 [Example 15, (2S, 3S)-3-[(5-(5-trifluoromethyl-1,2,4-oxadiazole-3-yl)-2,3-dihydrobenzofuran-7-yl)methyl]amino-2-phenylpiperidine hydrochloride] | 63.2% | 66.8% | – | –
(2S,3S)-3-[(5-phenyl-2,3-dihydrobenzofuran-7-yl)methyl]amino-2-phenylpiperidine hydrochloride [Example 9] | 68.4% | 59.3% | – | 0.41 nM
Cl.c1ccc([C@@H]2NCCC[C@@H]2NCc2cc(-n3cnnn3)cc3c2OCC3)cc1 [Example 3, (2S,3S)-3-[(5-(tetrazole-1-yl)-2,3-dihydrobenzofuran-7-yl)methyl]amino-2-phenylpiperidine hydrochloride] | 59.1% | 61.0% | 0.18 nM | –
